Measurements taken from patent publication US20250195660A1, “INACTIVATING BACTERIA WITH ELECTRIC PULSES AND ANTIBIOTICS” (Purdue Research Foundation, priority 2018, published 2025).

System: Stapphylococcus aureus (gram positive bacterium number 25923)
Test: Inactivation of S. aureus by 300 ns electric pulses combined with antibiotic (CFU plating)
Assay type: cell-based, Staphylococcus aureus
Description: Equipment. Used was a capacitor based Blumlein pulse generator with a spark gap switch to produce trapezoidal EPs of 300 ns duration at the peak with rise and fall times close to 50 ns. Multiple pulses were delivered at a frequency of 1 Hz.
The samples were treated in a standard electroporation cuvette (Dot Scientific) whose resistance must match the pulse generator's impedance to prevent pulse reflection. Utilizing Luria broth, containing 0.5% NaCl, in a cuvette with gap distances of 1 mm and 2 mm yielded the best electrical match (no reflections in the measured signal). Used were 2 mm cuvettes to ensure consistency between tests, and the applied voltage was measured across the cuvette using a LeCroy PPE 20 kV high voltage probe with a 1000:1 attenuation feeding into a TeleDyne LeCroy Waverunner 6 Zi Oscilloscope capable of measuring signals up to 4 GHz. Assuming a purely parallel plate geometry with minimal fringing gives an electric field E=V/d, where V is the peak voltage of the applied pulse and d is the gap distance.
Sample Preparation. These experiments assessed Stapphylococcus aureus (gram positive bacterium number 25923) from ATCC and Esherichia coli (gram negative bacterium number 25922) inoculated in luria broth (LB Broth Lennox, powder microbial growth medium. SIGMA-ALDRICH) by taking 8 mL of broth in a 50 mL sterile conical tube and incubating in a shaker for 20 h at 37° C. The sample was then diluted with fresh Luria broth until attaining an optical density of 0.25 for 100 μL on a photospectrometer (Molecular Devices) for a wavelength of 562 nm as measured in a 96-well plate. The optical density, which varies with growth or tube volume, was determined experimentally and set between 1×10^8 and 1.5×10^8 colony forming units (CFUs)/mL for the samples to be pulsed. These samples were then plated at dilutions between 10-6 and 100 (no dilution) depending on the effectiveness of the pulse treatments.
Electric Pulse Treatment Protocol. […] Although no consensus exists on a universal scaling law for applied EP “dose,” we fixed the energy density
[formula] • where N is the number of pulses and τ is the pulse duration. Fixing U for E=40, 30, and 20 kV/cm gave N=250, 445, and 1000 pulses, respectively. Cultures were plated as described below.
Cuvettes were filled with 365 μL of sample (sufficient to just cover the electrodes) and then 250 μL of molecular biology grade mineral oil was placed on top. Keeping the samples on ice upon achieving the required dilution further reduced experimental variability by slowing biological processes, such as fission This facilitated the assessment of the inactivation efficiency of EPs, drugs, and combined treatments.
Tests used the clinically relevant, bactericidal drug tobramycin, which targets the 30S and 50S ribosome complex and has a clinical dose from 4 to 5 μg/mL and rifampicin, which inhibits bacterial […]. Added were 0.2, 2, and 20 μg/mL of each drug to the initial bacterial dilutions prior to pulsing. Samples were immediately placed on ice to minimize cell division and reduce variability. These aliquots were also used to plate individual unpulsed controls for each drug concentration.
Plating. Plating was done on standard disposable tissue culture Petri dishes from VWR (15 cm diameter, 10 mm height) and covered with 10 mL of agar in luria broth (Agar, microbiology tested powder, SIGMA-ALDRICH), which was prepared by adding 20 g of LB lennox (SIGMA-ALDRICH) and 15 g/L of agar to water and then autoclaved.
Plated were samples at dilutions of 10^−6 and 10^−3 for low and high electric field treatments, respectively, and at 10^−6 and 10^−5 for controls All samples containing 100 μL of pulsed or diluted cultures were plated on LB agar plates and counted after overnight incubation at 37° C. […]

Measured: log-reduction of S. aureus

CO[C@H]1/C=C/O[C@@]2(C)Oc3c(C)c(O)c4c(O)c(c(/C=N/N5CCN(C)CC5)c(O)c4c3C2=O)NC(=O)/C(C)=C\C=C\[C@H](C)[C@H](O)[C@@H](C)[C@@H](O)[C@@H](C)[C@H](OC(C)=O)[C@@H]1C [rifampicin]
1 log: 20 kV/cm EPs + 0.2 μg/mL | 20 kV/cm EPs + 2 μg/mL | 20 kV/cm EPs + 20 μg/mL
